In patent publication US8822535B2 (priority 2005, dated 2014):
“And” between values parts separate entries of the source, which are not always exact repeats. Identical values can stand only once. Like-named read-outs stand apart in the source and are kept apart here.

What was measured:
mice [1] = system: mice
Description: Female C57BL/6J mice (Jackson Laboratories—Bar Harbor, Me.) were implanted with telemetry devices (PDT-4000 HR E-Mitter—MiniMitter Inc.—Bend, Oreg.) according to standard protocol provided by the manufacturer. Mice were allowed to recover for several weeks to permit body temperature and heart rate signals to stabilize. Core body temperature, heart rate, and movement of the mice were continuously monitored via the telemetry devices and recorded using VitalView software (provided by MiniMitter). Ambient temperature was monitored using a HOBO (Onset Computer Corp. —Pocasset, Mass.) and the data analyzed using BoxCar software (provided by Onset Computer Corp.).
Prior to and during exposure to testing in regulated and unregulated atmospheres, the mice were placed in a gassing chamber comprising a glass cage (with drinking water and no food) fitted with import and export tubes of FEP tubing from Cole-Parmer (Vernon Hills, Ill.) for introduction and venting of the atmosphere. The cage was sealed with a lid using Dow Corning silicone vacuum grease (Sigma—St. Louis, Mo.). The gas from each cage was vented through the export tube into the chemical hood. To ensure that the system was gas-tight, a GasTech GT portable monitor was used to detect leaks.
In some experiments, the consumption of oxygen was measured by use of a PA-10a O2 analyzer (Sable Systems) which was used according to manufacturers instructions. Similarly, the carbon dioxide being produced by the animals was monitored using a LI-7000 CO2/H2O analyzer (Li-Cor company) used according to the manufacturers instructions. These instruments were placed in line with the environmental chambers such that they sample the gas import and export tubing.
Mice were housed in a Shel Lab low temperature diurnal illumination incubator (Sheldon Manufacturing Inc. —Cornelius, Oreg.) to regulate both temperature and light cycle (8 AM lights on, 8 PM lights off) for the mice. Mice were exposed to regulated atmosphere as described above. When the mice were exposed to the regulated atmosphere, the temperature inside the incubator was dropped to the desired temperature, for example, to 10° C. or 15° C. The mice were maintained in the regulated atmosphere and at the lowered temperature for six hours. The atmosphere in the gassing chamber was replaced with room air and the mice were returned to normal room temperature (22° C.) and allowed to recover.
To test this hypothesis, the inventor wanted to continuously monitor both the core body temperature and the activity levels of a homeothermic animal (a mouse).

Drosophila melanogaster = assay: Anoxia tolerance of Drosophila melanogaster after CO2 / H2S treatment; type: in vivo; conditions: adult flies
Protocol: Adult flies were introduced into 35 mL tubes made of glass with a gas-tight rubber stopper (Balsh tubes). This was usually accomplished by anesthetizing flies with CO2, moving groups of flies to vials with food to recover for at least 2 hours, and then transferring them into the Balsh tube. To exchange the gaseous environment in the Balsh tube, two 18 gauge needles were inserted into the rubber stopper, and gas is blown into one of the needles at 100 mL/min. To prevent dessication, gasses were humidified by bubbling through 10 mL of water before passing it through the Balsch tube. The water in the bubbler is equilibrated with the gas for at least 20 minutes before starting the experiment.
For “stopped-flow” experiments, gas exchange proceeded for 60 minutes before sealing the tube. For “low-flow” experiments, gas flow continued throughout the experiment. CO2 was from the house source (100%), and anoxic environments were established by flushing out room air with 100% nitrogen (N2). Care was taken to prevent introduction of room air into the system while switching the atmosphere from CO2 to N2.
After anoxic treatment, oxygen was reintroduced into the Balsh tube by flushing with house air for 20 minutes. The rubber stopper was then removed and a food vial is inverted over the top of the Balsh tubes with Parafilm. […] Viability was scored at least 18 hours after the end of anoxic treatment. After two weeks, if the food vials contained larvae and/or pupae the flies were considered to be fertile.

rats [2] = type: in vivo, rat
Protocol: After surgical implantation of catheters and recovery, blood was removed from conscious animals in 40 minutes. […] Three hours after the end of the bleed, surviving animals were given one shed-blood volume of lactated ringers solution intravenously.

mice [3] = assay: Gas matrix: metabolic flexibility in altered gas environments, mice; type: in vivo, mouse; conditions: 0.01% in room air, ambient 7 to 10° C., 6-hour treatment
Protocol: (§1) Metabolic flexibility was evaluated in mice rats and dogs using altered gas environments. Three parameters were used to define this reduction in metabolism including changes in carbon dioxide production, oxygen consumption measured by respirometry, and core temperature as measured using telemetry. In experiments with mice and rats the animals were placed into sealed chambers with one gas import and one gas export. For dogs a mask was placed over the snout of the animal with two hoses (import and export) attached to the mask. The flow rate of gas for each of the animals mice—500 cc per minute, rats—2 liters per minute, and dogs 40 liters per minute. Each atmosphere was constructed from compressed gas by dilution into room air unless otherwise noted. For rat and mouse experiments the ambient temperature was 7 to 10° C. during exposure to the test gases. For dogs ambient temperature was room temperature (22° C.).
(§2) Evidence of depression in metabolic rate of greater than 5-fold as judged by carbon dioxide production or oxygen consumption during a 6-hour treatment is described by “Yes”; […]; “N/D” denotes experiments not done. The temperature drop in the dog experiment (Carbon dioxide+low oxygen+Helium) was approximately 1.5° C. over the course of 30 minutes of exposure. This drop in temperature was considered significant because the dog was 12 kg and no such temperature drop was seen during extensive baseline recording of the animal in room air.

rats [4] = assay: Gas matrix: metabolic flexibility in altered gas environments, rats; type: in vivo, rat; conditions: 0.03% in room air, ambient 7 to 10° C., 6-hour treatment
Protocol: as §1, §2

rats [5] = system: rats
Protocol: On the day of the experiment, catheters were surgically implanted into the right femoral artery and vein. Catheters exited behind scapulae. Rats were administered buprenorphine post-surgically and allowed to recover.
The anti-coagulant drug heparin (80-100 units) was administered intravenously as a bolus to decrease the clotting ability of the blood and enhance hemorrhage. […] Catheters, temperature probe, and gas sampling tube were passed through a hole drilled in the middle of the lid. Temperature was maintained at approximately isothermal temperature (27+/−2° C.).
The hemorrhage model was defined by the removal of 60% of total body blood over the course of a 40 minute bleed. Blood was removed using a peristaltic pump.
Blood was removed at the calculated rate via the femoral catheter artery. Blood was weighed as it was removed.
Metabolic rate was determined by measuring CO2 production (Licor Li7000). Temperature and CO2 data were collected (ADI PowerLab). Arterial blood values were measured (I-Stat blood chemistry analyzer). Following the bleed, animals were placed in a cage for three hours and observed. At the end of three hours, surviving rats were given lactated ringers ad libitum. For non-surviving animals, time of death was declared when animals stopped breathing and CO2 production ceased. […]

C. elegans nematodes = conditions: in vivo
[6] = 80 ppm H2S, 15 minutes, 0.5 L chamber

Structure (SMILES): S [H2S, hydrogen sulfide]
- core body temperature reached repeatedly (mice [1]; 80 ppm): 13-15 °C
- reduction in carbon dioxide production (mice [1]; 80 ppm H2S (FIG. 4A)): approximately 3 fold
- drop in carbon dioxide production (mice [1]; [6]): 3-4 fold
- drop in oxygen consumption (mice [1]; [6]): 2-3 fold
- heart rate (mice [1]; 80 ppm, 3 hrs, dropped from 600 bpm): 250 bpm
- lowest core body temperature recorded (mice [1]; 80 ppm, ambient temperature dropped to less than 10° C. (FIG. 7)): 10.7 °C
- core temperature (mice [1]; 80 ppm, cabinet 10° C., telemetry mouse, estimation from slope after electronics failed at 15.3° C.): approximately 12.5 °C
- core body temperature (mice [1]; 80 ppm, cabinet 10.5° C., approximately six hours): 10.5 °C
- decrease in cellular respiration (mice [1]; 80 ppm, core temperature 15° C.): 1-20 fold
- breathing (mice [1]; 80 ppm, core temperature dropped to 15° C.): 1-10 breaths per minute
- core temperature (mice [1]; 80 ppm, incubator 18° C., 90 min): 28.6 °C
- core temperature (mice [1]; 80 ppm, incubator 18° C., 3 hrs): 18.6 °C
- Consumption of oxygen (mice [1]; H2S (80 ppm) present): 1300 ppm
- production of carbon dioxide (mice [1]; H2S (80 ppm) present): 750 ppm
- RQ (mice [1]; mouse, in vivo): 0.58
- behavior of the animals (mice [1]; mouse, in vivo): no apparent change in the behavior
- behavior tests (SHIRPA protocol) (mice [1]; mouse, in vivo): no detectable behavioral differences
- lowest average core body temperature (mice [1]; seven mice, 80 ppm, 6 hrs, ambient temperature 13° C.): 15 °C
- survival (Drosophila melanogaster; 50 ppm H2S in room air prior to 18.5 h anoxia): 25%
- survival (Drosophila melanogaster; 50 ppm H2S present in the CO2 pretreatment and removed as anoxia is established, 20 h): 35%
- survival (Drosophila melanogaster; CO2 10 min, H2S/CO2 10 min, N2/H2S 10 min, then N2, 15 h anoxic exposure, low-flow): 50%
- rats surviving hemorrhage and 3 hour shock period (rats [2]; 300 ppm H2S): 6/7
- Complete recovery (rats [2]; 300 ppm H2S from 30% blood loss to end of 40 minute bleed): 85.7% (6/7)
- CO2 production (VCO2) (rats [2]; 15 minutes post bleed): 17 ± 3 mL/min/kg
- Blood CO2 content (pCO2) (rats [2]; End of bleed): 35 +/− 6 mmHg
- Blood Lactate (rats [2]; End of bleed): 6.6 ± 1 mmol/L
- Blood base excess (rats [2]; End of bleed): -5 ± 4 mmol/L
- Blood bicarbonate content ([HCO3]) (rats [2]; End of bleed): 21 ± 3 mmol/L
- Blood pH (rats [2]; End of bleed): 7.41 +/− 0.02
- CO2 production (VCO2) (rats [2]; End of bleed): 16 ± 2 mL/min/kg
- CO2 production (VCO2) (rats [2]; Mid-bleed): 20 ± 2 mL/min/kg
- Blood CO2 content (pCO2) (rats [2]; Pre-bleed): 45 +/− 6 mmHg
- Blood Lactate (rats [2]; Pre-bleed): 1.4 ± 0.5 mmol/L
- Blood base excess (rats [2]; Pre-bleed): 8 ± 2 mmol/L
- Blood bicarbonate content ([HCO3]) (rats [2]; Pre-bleed): 32 ± 3 mmol/L
- Blood pH (rats [2]; Pre-bleed): 7.46 +/− 0.03
- CO2 production (VCO2) (rats [2]; Pre-bleed): 25 ± 4 mL/min/kg
- Time to death of non-survivors (rats [2]; after the end of the bleed, 300 ppm H2S): 174 min and 174 (1/7) min
- depression in metabolic rate, Mouse (mice [3]): Yes 0.01% (Evidence of depression in metabolic rate of greater than 5-fold as judged by carbon dioxide production or oxygen consumption during a 6-hour treatment is described by “Yes”)
- depression in metabolic rate, Rat (rats [4]): Yes 0.03% (Evidence of depression in metabolic rate of greater than 5-fold as judged by carbon dioxide production or oxygen consumption during a 6-hour treatment is described by “Yes”)
- survival of the hemorrhage (rats [5]; 2000 ppm H2S in room air at 20 minutes of the 40 minute bleed, generally 1 to 2 minutes, 7 out of 8): 88%
- signs during exposure (rats [5]; rat, in vivo): apnea and dystonia
- lethality (C. elegans nematodes): considerable lethality
- progeny (C. elegans nematodes): same number of progeny
